{
  "source": "patent US11384118B2",
  "about": "“CAR-T cells targeting glioma stem cells for the treatment of glioblastoma multiforme” (H. Lee Moffitt Cancer Center and Research Institute, Inc., priority 2018, dated 2022)",
  "key": {"[1]": {"system": "patient-derived glioma stem cells", "assay": "IFNG release assay following overnight coculture of CAR-T cells with GSC", "assay_type": "cell-based, human", "settings": "GSC vs DGC of same patient, H2110 and media negative controls", "from_the_text": "Capitalizing on the unique ability of peptides EYA and VAV to bind to GSC, a series of chimeric antigen receptors (CARs) were designed that display a peptide derived from the EYA and VAV sequences, arranged in tandem, at the N-terminus of the CAR molecule. The role of the tandem peptides in the N-terminus of the CAR is to detect GSC, which in turn will activate the T cell through the CD3ζ domain in the C-terminus. Most CARs utilize antibody-derived molecules (Abate-Daga D, L et al. Hum Gene Ther. 2014 25(12):1003-12), or natural ligands (Brown C E, et al. N Engl J Med. 2016 375(26):2561-9; Brown C E, et al. Clin Cancer Res. 2012 18(8):2199-209) to receptors expressed by target cells to perform this function. Seven CAR constructs were generated based on combinations of peptides EYA and VAV (VAV-EYA and EYA-VAV), and of VAV plus five additional peptides (termed 1-VAV, 2-VAV, 3-VAV, 4-VAV, and 5-VAV) identified in the biopanning assays (FIG. 7). CAR cDNA was cloned into a retroviral expression vector used for clinical CAR-T cell manufacture, called pMSGV1, and the resulting constructs were used to transduce human primary T cells. The expression of the CAR molecules was first analyzed by Western blot against the CD3ζ chain of the CAR. Six of the seven CAR designs were expressed in transduced cells (FIG. 8). […]"}, "glioblastoma tissue": {"system": "glioblastoma tissue", "assay": "Fluorescent peptide staining of glioblastoma and normal brain tissue", "assay_type": "binding, human", "settings": "peptide conjugated with fluorescein", "procedure": "Patient brain tissues were obtained from Cleveland Clinic Tissue Bank. Cells (GSC and DGC) or frozen-sectioned tissues (glioblastoma and normal brain) were fixed in 4% paraformaldehyde and permeabilized with 0.1% Triton X-100 and stained using following primary antibodies: EYA1 (Aviva System Biology, ARP32434_P050), SOX2 (R&D system, MAB2018), vWF (Abcam, ab68548), CD31 (Santa Cruz Biotechnology, sc-1506), MYC (Cell signaling, 5605), and SIX1 (Abcam, ab84329) primary antibodies were incubated overnight at 4° C., followed species appropriate secondary antibodies with incubation for 3.5 hours at room temperature. Nuclei were stained with DAPI, and slides were then mounted with FluorSave (Calbiochem, 345789). Images were taken using a Leica DM4000 uplight microscopy. For DAB staining, tissues were incubated with rabbit anti-EYA1 or anti-c-Myc antibody overnight at 4° C., followed goat anti-rabbit biotinylated secondary antibody with incubation for 3.5 hours at room temperature. After incubation with antibodies, tissues were stained using VECTASTAIN Elite ABC HRP Kit (VECTOR LABORATORIES, PK-6100) and DAB Peroxidase Substrate Kit (VECTOR LABORATORIES, SK-4100) according to the manufacturer's instructions. After counterstaining with 50% hematoxylin, images were taken. […]"}, "[2]": {"system": "glioblastoma xenografted into the subcutaneous flank", "assay": "In vivo imaging after tail vein injection, subcutaneous flank xenograft", "parameters": "species or system NSG mice", "from_the_text": "(§1) Cyanine 5.5-conjugated peptide AWEFYFP (SEQ ID NO:2) and control peptide GGGSGGG (SEQ ID NO:33) were synthesized by LifeTein, LCC. (Hillsborough, N.J., USA). GSCs were implanted into subcutaneously (5×10^5 cells) or intracranially (5×10^4 cells) into 4 weeks old NSG mice under a Cleveland Clinic Foundation Institutional Animal Care and Use Committee approved protocol. After 4 weeks, cyanine 5.5-conjugated peptides were delivered into the mice via intravenous injection. Signals from injected peptides were monitored by fluorescence channel of IVIS Spectrum CT In Vivo Imaging System (PerkinElmer, USA) for 72 hours."}, "[3]": {"system": "intracranial glioma patient-derived xenografts", "assay": "In vivo imaging after tail vein injection, intracranial xenograft", "parameters": "species or system NSG mice", "from_the_text": "as §1"}, "GSCs": {"system": "GSCs", "assay": "Binding of Cy5.5-conjugated peptide to GSCs / GSC tumor sphere", "parameters": "species or system human", "settings": "peptide conjugated with Cyanine 5.5", "procedure": "Cells were dissociated to singles with TrypLE Express (Thermo Fisher Scientific) and recovered in Neurobasal medium at 37° C. for 1-2 hours. Before the incubation with primary antibodies, cells were blocked with 2% BSA in PBS for 30-50 minutes. Primary antibodies were treated at 4° C. for 40-90 minutes. Anti-EYA1 antibody (Aviva System Biology, ARP32434_P050), anti-IgG control antibody, 5(6)-carboxyfluorescein-conjugated peptide AWEFYFP, and cyanine 5.5-conjugated peptide AWEFYFP were used as primary antibodies. After washing with 1% BSA in PBS, cells were incubated with Alexa Fluor 488-conjugated goat anti-rabbit IgG antibody (Invitrogen, A11008) at 4° C. for 40 minutes. Unstained- or secondary antibody treated-cells without a primary antibody were used as negative controls. Labeled cells were analyzed by flow cytometry."}},
  "note": "“Also recorded” adds a separate entry of the source. Ends that are not written are not given here.",
  "data": [
    {"substance": "5-VAV: CAR with peptide #5 linked to peptide VAV (binding agent SEQ ID NO:27) (NWYWVYPGGGGSGGGGSGGGGSSSQPFWSGSTSGSGKPGSGEGSTKG) [Peptide 5-VAV]", "values": [
      {"measurement": "IFNG release / recognition of GSC", "setting": "[1]", "result": "specific recognition of GSC (but not differentiated glioma cells, DGC, derived from the same patient)"}
    ]},
    {"substance": "AWEFYFP (also: carboxyfluorescein conjugate) [GBM-IC2, used fluorescein-conjugated for staining]", "values": [
      {"measurement": "binding to glioblastoma tissue relative to normal brain", "setting": "glioblastoma tissue", "result": "specifically bound to glioblastoma tissue, relative to normal brain; also recorded: preferential binding to glioblastoma tissue"},
      {"measurement": "binding to SOX2 expressing cells (co-staining with GSC marker SOX2)", "setting": "glioblastoma tissue; double staining with anti-SOX2", "result": "greater binding of GBM-IC2 to SOX2 expressing cells; also recorded: co-staining with SOX2"}
    ]},
    {"substance": "GBM-IC2-Cy5.5: GBM-IC2 peptide conjugated with Cyanine 5.5, a near infrared marker (AWEFYFP; also: Cy5.5 conjugate)", "values": [
      {"measurement": "earliest time of tumor binding after injection", "setting": "[2]; flank xenograft", "result": 20, "unit": "min"},
      {"measurement": "tumor targeting by imaging, flank xenograft", "setting": "[2]; in vivo and ex vivo", "result": "high specificity of binding to the tumor; also recorded: specific targeting of the tumor four hours after injection in a dose dependent manner"},
      {"measurement": "histological analysis of peptide signal in intracranial tumor", "setting": "[3]; ex vivo brain sections", "result": "positive fluorescent signal in the intracranial tumor samples"},
      {"measurement": "tumor targeting by imaging, intracranial xenograft", "setting": "[3]; tail vein injection, imaging 20 minutes post-injection, in vivo and ex vivo", "result": "strong specificity of binding of tumor in the intracranial cavity; also recorded: specific targeting of the intracranial tumor"},
      {"measurement": "penetration of the BBB", "setting": "[3]; tail vein injection, intracranial xenograft", "result": "penetrate the BBB"},
      {"measurement": "binding to GSCs", "setting": "GSCs", "result": "binding to GSCs in a concentration-dependent manner"},
      {"measurement": "binding to GSCs", "setting": "GSCs; listed as GBM-IC2 conjugated with Cy5.5", "result": "preferential binding to GSC tumor sphere"}
    ]}
  ]
}
